What was measured:
[1] = system: PEG2 production from 3T3 cells; experiment: PEG2 (prostaglandin E2) inhibition in 3T3 cells stimulated with calcium ionophore, EIA kit; format: cell-based; settings: Mus musculus, NIH3T3, at 0.488 μg/mL, read-out: highest PEG2 inhibition observed
Excerpt: An extract according to the invention can also be tested for anti-inflammatory activity. By way of a non-limiting example, the extracts may be tested for prostaglandin E2 (PGE2) activity. As known in the art, PGE2 inhibitory activity can be measured by the ability of test samples to inhibit PGE2 production in 3T3 cells when stimulated with calcium ionophore. As understood in the art, aspirin and ibuprofen may be included in the assay as a positive control. The in vitro production of PEG2 from 3T3 cells was measured using the Cayman Chemical Prostaglandin E2 monoclonal EIA (Enzyme Immuno Assay) kit. The cells were exposed to samples 3 and 6 and stimulated with calcium ionophore. The cell supernatants were then assayed for PEG2 production. The cell cytotoxicity of the samples was tested against 3T3 cells to confirm that the observed PEG2 inhibition was not due to cell cytotoxicity. Aspirin and ibuprofen were used as positive controls.

[2] = molecular target: yeast (Saccharomyces cerevisiae) α-glucosidase; experiment: α-Glucosidase inhibition (hydrolysis of 4-methylumbelliferyl-α-D-glucopyranoside, fluorescence); format: biochemical; settings: pH 5.5, 20 minutes at 37° C.
Protocol: As known in the art, α-glucosidase inhibitory activity can be measured as the ability of test samples to prevent the hydrolysis of 4-methylumbelliferyl-α-D-glucopyranosidase by yeast (Saccharomyces cerevisiae) α-glucosidase using known techniques. As will be understood by the skilled person, acarbose can be included in the assay as a positive control.
α-Glucosidase inhibitory activity is measured as the ability of test samples to prevent the hydrolysis of 4-methylumbelliferyl-α-D-glucopyranosidase by yeast (Saccharomyces cerevisiae) α-glucosidase.
Each sample (0.5 mL) was weighed and freeze-dried to determine its % dry matter. The samples were then resuspended in either dimethyl sulfoxide (DMSO) or DMSO:water (1:1) to a concentration of 15 mg/mL, after which the samples were serially diluted.
The substrate, 4-methylumbelliferyl-α-D-glucopyranoside, and enzyme, yeast α-glucosidase, were prepared in the assay buffer, sodium acetate buffer (pH 5.5). The substrate (final concentration 83 μM, 45 μL) was added to 96-well plates containing 45 μL enzyme (final concentration 1.7 mU/mL) and 10 μL of sample. […] The reaction was stopped by the addition of 100 mM sodium glycine buffer (100 μL, pH 10.6), the plate was shaken for a further 30 seconds, and the fluorescence intensity was measured at λex 355 nm and λem 460 nm. […]

Compound | inhibition at 0.488 µg/mL [1] | α-glucosidase inhibitory activity IC50 [2]
CC(C)Cc1ccc(C(C)C(=O)O)cc1 (centres unmarked) [ibuprofen] | 42.1% | 
fucoidan |  | 0.17 µg/mL

Reference: US11730178B2, “Extraction method” (THE PRODUCT MAKERS (AUSTRALIA) PTY LTD, priority 2012, dated 2023)
